Measured values: patent US20250034264A1, “REGULATING T CELL IMMUNE RESPONSE THROUGH IGF-I RECEPTOR (IGF-1R)” (The Regents of the University of Michigan, priority 2021, published 2025)

How the values were obtained:
Format in all cases: cell-based, human
fibrocytes [1] = assay: Gene promoter activity assay (Secrete-Pair Dual Luminescence); settings: 50 μg/mL
Experimental: Cell transfections, gene promoter assays and siRNA knockdown studies The nucleofection method was utilized to transfect fibrocytes with the U-023 program of the Nucleofector II instrument (Lonza, Walkersville, MD) and the Amaxa human CD34 cell nucleofection kit (cat. no. VPA-1003; Lonza). To assess human gene promoter activities, appropriate fragments described in earlier reports were selected and cloned for MHC II, CD80, CD86, and PD-L1. Confluent fibrocyte monolayers were treated with human Isotype IgG or teprotumumab (50 μg/mL) for 3 d. Cells were transfected with the following target gene promoter fragment sequences supplied by GeneCopoeia (Rockville, MD): MHC-2 (cat. #HPRM49526), −100 to +1429 nt; CD80 (cat. #HPRM45966), −300 to +1350 nt; CD86 (cat. #HPRM46979), −231 to +1272 nt; PD-L1 (cat. #HPRM40139), −237 to +1282 nt; and negative control clone PG04 (cat. #NEG-PG04). After 3-4 d, cells were incubated without or with bTSH (5 mU/mL) for 2 h. Monolayers were harvested and promoter activities measured using the Secrete-Pair Dual Luminescence Assay Kit (cat. #LF033, GeneCopoeia Rockville, MD) according to manufacturer's instructions in an FB12 tube luminometer (Zylux, Huntsville, AL). Values were normalized to internal controls and each experiment was performed at least three times. […]

fibrocytes [2] = assay: IL-10, icIL-1RA, sIL-1RA expression (PCR, ELISA)
Experimental: (§1) FIGS. 11A-11F are graphs showing teprotumumab attenuates bTSH induced IL-10 while enhancing icIL-1RA and sIL-1RA expression in fibrocytes and GD-OF. Fibrocyte cultures were treated with teprotumumab (50 μg/ml), rhSlit2 (50 ng/ml) or human Isotype IgG for 7-9 d, with bTSH (5 mIU/mL) for final 6 h. RNA was extracted and reverse transcribed. Isolated cDNA was subjected to quantitative real-time PCR for IL-10 (FIGS. 11A and 11B), icIL-1RA (FIGS. 11C and 11D). Media and cellular proteins were collected and subjected to specific ELISAs for icIL-1RA and sIL-1RA (FIGS. 11E, 11F, 11G, and 11H). PCR values were normalized to their respective GAPDH levels. icIL-1RA and sIL-1RA protein levels were normalized to cellular protein levels. Data are expressed as the mean±SD of three independent determinations. Experiments were repeated three times. **, p<0.01; ***. P<0.001.
IL-12, IL-23, IL-10, HA and BAFF ELISAs. Confluent cultures were treated with nothing or teprotumumab (50 μg/mL) for 5 d, without or with bTSH (5 mU/mL) for the intervals indicated or 72 h. Media and rinsed cell layers were homogenized in 0.1M NaCl and assayed for HA content using an ELISA kit (K-1200) from Echelon Biosciences Inc. (Salt Lake City, UT) according to manufacturer's instructions. A BAFF specific ELISA, purchased from R & D systems, was used in accordance with the manufacturer's instructions.
(§2) Real-time PCR Confluent fibrocyte and GD-OF cultures were incubated with bTSH (5 mIU/mL), teprotumumab (50 μg/mL) or linsitinib (1 μM) for the time intervals indicated, washed with PBS and RNA was extracted with the Aurum Total RNA Mini Kit (cat. #732-6820, Bio-Rad, Hercules, CA). Cellular RNA (2 μg) was reverse transcribed using QuantiTect Reverse Transcription kit (cat. #205314, Qiagen (Germantown, MD) and real-time PCR was performed using an Applied Biosystems instrument with QuantiTect SYBR Green PCR kit (cat. no. 204143; Qiagen, Frederick, MD). Primer sequences were as follows.

GD-OF [3] = assay: icIL-1RA and sIL-1RA protein (ELISA)
Experimental: as §1

GD-OF [4] = assay: Slit2 and ROBO1 mRNA and Slit2 protein; settings: 50 μg/ml, 3 d
Experimental: FIGS. 14A-14B are graphs showing teprotumumab induces Slit2 and roundabout 1 (ROBO1) mRNA and Slit2 protein in GD-OF. Cultures were treated with either isotype control IgG or teprotumumab (50 μg/ml) for 3 d. Culture media were collected and subjected to Slit2-specific ELISA (FIG. 14A). Levels of Slit2 were normalized to respective cell layer protein content. Cellular RNA was harvested from rinsed cell layers and mRNA reverse transcribed, and cDNA subjected to quantitative real-time PCR for Slit2 and ROBO1 (FIG. 14B). Values were normalized to their respective GAPDH levels. * *, p<0.01, * **, p<0.001.
as §2

[5] = teprotumumab 50 μg/ml or rhSlit2 50 ng/ml, 7-9 d

**Q.** For teprotumumab, which “activities of MHC II, CD80, CD86, PD-L1 gene promoter fragments” value (fibrocytes [1]; 3 days) is on record?
**A.** downregulated

**Q.** What about the “bTSH induction of each gene promoter fragment” value (fibrocytes [1]; bTSH 2 h) of the same substance?
**A.** attenuated

**Q.** And the “effects on icIL-1RA protein levels” value (fibrocytes [2]; ELISA, fibrocytes)?
**A.** minimal

**Q.** What about the “IL-10 mRNA, basal and bTSH-provoked expression” value (fibrocytes [2]; [5]) of the same substance?
**A.** downregulated

**Q.** What about the “basal and bTSH-dependent icIL-1RA and sIL-1RA mRNA levels” value (fibrocytes [2]; [5]) of the same substance?
**A.** upregulated

**Q.** What about the icIL-1RA protein levels (GD-OF [3]) of the same substance?
**A.** upregulated

**Q.** And the sIL-1RA protein levels (GD-OF [3])?
**A.** upregulated

**Q.** And the Slit2 protein synthesis (GD-OF [4]; ELISA)?
**A.** increased

**Q.** And the “ROBO1 mRNA expression” value (GD-OF [4]; three strains of GD-OF)?
**A.** induced

**Q.** And the “Slit2 mRNA expression” value (GD-OF [4]; three strains of GD-OF)?
**A.** induced
